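Grown in 96-well plates, cells were treated for 48 hours with each compound at five concentrations. Insufficient inhibition: endpoint recorded as highest concentration tested. Here, GI50 denotes the concentration required for 50% inhibition of growth. TGI: concentration producing complete growth inhibition.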
What was measured:
Assay in all cases: NCI anticancer screen, dose series, 48 h
[1] = tested on: CAKI-1 renal
[2] = tested on: HCT-116 colon
[3] = tested on: NCI-H522 lung
[4] = tested on: SW-620 colon
[5] = tested on: SK-MEL-28 melanoma
[6] = tested on: MDA-MB-435
[7] = tested on: SK-MEL-2 melanoma
[8] = tested on: MOLT-4 leukemia
[9] = tested on: DMS 114 small cell lung
[10] = tested on: M19-MEL melanoma
[11] = tested on: DMS 273 small cell lung
[12] = tested on: DLD-1 colon

Row | Structure (SMILES) | GI50 [1] [µM] | TGI [1] [µM] | GI50 [2] [µM] | TGI [2] [µM] | GI50 [3] [µM] | TGI [3] [µM] | GI50 [4] [µM] | TGI [4] [µM] | GI50 [5] [µM] | TGI [5] [µM] | GI50 [6] [µM] | TGI [6] [µM] | GI50 [7] [µM] | TGI [7] [µM] | GI50 [8] [µM] | TGI [8] [µM] | TGI [9] [µM] | TGI [10] [µM] | TGI [11] [µM] | TGI [12] [µM]
1 | CC(=O)c1cc(C(=O)c2ccc3c(c2)Sc2ccccc2N3)c2c(C)cc(C)cn12 | 0.529 | 72.9 | 0.263 | > 100 | 0.16 | 1.08 | 0.372 | > 100 | 3.64 | > 100 | 0.0468 | 0.237 | 0.317 | > 100 | 0.465 | > 100 | – | – | – | –
2 | Cl.Fc1c[c-]c(-c2ccccn2)c(F)c1.[Pt].c1ccc(P(c2ccccc2)C([PH+](c2ccccc2)c2ccccc2)[PH+](c2ccccc2)c2ccccc2)cc1 | 2.19 | 7.41 | 2.72 | 12.3 | 2.62 | 9.86 | 3.19 | 14.6 | 5.02 | 26.9 | 3.4 | 16 | 2.54 | 6.7 | 2.54 | > 100 | – | – | – | –
3 | COC(=O)[C@]12CC[C@@H](C)[C@H](C)[C@@H]1C1=CC[C@@H]3[C@@]4(C)C(C=O)=C[C@@](C)(COC(C)=O)C4=CC[C@@]3(C)[C@]1(C)CC2 | 3.66 | 17 | 2.47 | 10.4 | 7.97 | 20.5 | 4.15 | 16.2 | 3.22 | 12.3 | 4.28 | 16.4 | 4.71 | 16.1 | 1.82 | 6.12 | – | – | – | –
4 | CC(=O)c1ccc(OCC(O)CO)cc1 (centres undefined) | – | > 100 | – | 33.5 | – | > 100 | – | 29.4 | – | > 100 | – | – | – | – | – | > 100 | > 100 | > 100 | > 100 | > 100
5 | Cc1cc2c(cc1C)[n+](=O)c(C(=O)C/C(=N/OCCCc1ccccc1)C(=O)Nc1cc(Cl)ccc1Cl)c(C)n2[O-] | – | > 100 | – | > 100 | – | > 100 | – | > 100 | – | > 100 | – | – | – | 86.2 | – | > 100 | – | > 100 | > 100 | > 100
6 | Nc1nc2c(s1)CCc1c-2c(Br)n(Cc2ccccc2)c1Br | 3.14 | 12.1 | 2.53 | 6.43 | 2.04 | 4.63 | 3.31 | 9.74 | 12.9 | 26.2 | 8.57 | 30.7 | 21.6 | 43.4 | 2.33 | 26.7 | – | – | – | –
7 | Cn1cc(C2=C(c3cn(C)c4c([N+](=O)[O-])cccc34)C(=O)NC2=O)c2ccccc21 | > 25 | > 25 | > 25 | > 25 | > 25 | > 25 | > 25 | > 25 | > 25 | > 25 | > 25 | > 25 | > 25 | > 25 | > 25 | > 25 | – | – | – | –
8 | Cc1ccccc1-n1ncc(C(=O)c2ccccc2)c1N | > 25 | > 25 | > 25 | > 25 | > 25 | > 25 | > 25 | > 25 | > 25 | > 25 | > 25 | > 25 | > 25 | > 25 | > 25 | > 25 | – | – | – | –
9 | COc1ccc2c(c1)[nH]c(=O)c1c3cc(OC)ccc3cn21 | < 0.01 | < 0.01 | < 0.01 | 1.08 | 0.022 | 0.564 | < 0.01 | 1.31 | 0.0102 | 2.01 | < 0.01 | < 0.01 | 0.0538 | 2.43 | < 0.0145 | 0.788 | – | – | – | –
10 | Clc1cccc(Cl)c1C1CSc2ccccc2N=C1c1ccccc1 (centres undefined) | 10.6 | 29.8 | 1.71 | 3.32 | 3.52 | 14.5 | 2.34 | 5.64 | 4.82 | 17.3 | 3.59 | 13.6 | 11.2 | 24.3 | 3.86 | 37.6 | – | – | – | –
11 | C[C@H](Nc1ncnc2nc[nH]c12)c1cc2ccc(F)cc2nc1-c1ccccn1 | 33.7 | > 100 | > 100 | > 100 | > 54.1 | > 100 | > 100 | > 100 | > 100 | > 100 | > 100 | > 100 | > 100 | > 100 | 52.2 | > 100 | – | – | – | –
12 | CNC(=O)OCc1c2ccncc2c(C)c2c1[nH]c1ccccc12 | – | 1.25 | – | 12.7 | – | 0.272 | – | 2.38 | – | 2.25 | – | 1.58 | – | 0.548 | – | > 100 | – | – | – | –
13 | CC(C)(C)C(=O)OCOP(=O)(OCOC(=O)C(C)(C)C)C1CC(O)N(O)C1=O (centres undefined) | 4.87 | > 100 | 3.72 | > 100 | 2.95 | 14.4 | 4.46 | > 100 | 2.38 | 6.44 | 8.15 | > 100 | 5.14 | 92.1 | 3.91 | > 100 | – | – | – | –
14 | COc1ccc(C(SCC(N)C(=O)O)(c2ccccc2)c2ccccc2)cc1 (centres undefined) | 0.457 | > 100 | 0.043 | 25.8 | 0.104 | > 100 | 0.0745 | > 100 | 3.12 | > 100 | 0.0306 | – | 5.03 | > 79.5 | 0.439 | > 100 | – | – | – | –
15 | c1cc2[nH]ncc2cc1-c1nc2ccc3[nH]ncc3c2c2c1CCCC2 | 0.434 | 5.62 | 0.455 | 10.6 | 0.424 | 3.16 | 0.441 | 11.2 | 1.28 | 5.88 | 0.315 | 3.74 | 0.509 | 2.15 | 1.13 | > 20.9 | – | – | – | –

Reference: PubChem BioAssay (NCI)
